Experiment [1] concerns T47D (PI3Kα-H1047R) cell line. As to the kind of experiment: HTRF phospho-AKT(S473) cell assay in T47D cells. It counts as cell-based, human. Particulars: Homo sapiens, 2 hours compound incubation. In a few lines:
(§1)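 Cells plated overnight (T47D in RPMI/10% FBS/0.2 units/mL insulin; SKBR3 in McCoy's 5A/10% FBS), then given 12-point 1:3 compound series (top 5 μM T47D, 10 μM SKBR3; ≤0.5% DMSO) for 2 h at 37° C. SKBR3 stimulated with 70 ng/ml PDGF-BB for final 15 min. Lysate pAKT(S473) by HTRF; IC50 calculated.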
In general terms: Time-resolved FRET reads energy transfer from a long-lived donor to a nearby acceptor.

The subject of experiment [2] is SKBR3 (PI3Kα-Wild Type) cell line. Description: HTRF phospho-AKT(S473) cell assay in SKBR3 cells. Particulars: Homo sapiens, SK-BR-3, 2 hours compound incubation, PDGF-BB stimulated. It counts as cell-based, human. The method, boiled down: as §1
Setting [3] is: T47D (PI3Kα-H1047R) cells, HTRF phospho-AKT(S473).
The mark [4] stands for this setting: SKBR3 (PI3Kα-Wild Type) cells, HTRF phospho-AKT(S473).
The mark [5] stands for this setting: HTRF phospho-AKT(S473), T47D (PI3Kα-H1047R) cells.
[6] abbreviates: HTRF phospho-AKT(S473), SKBR3 (PI3Kα-Wild Type) cells.

Molecules are shown by their SMILES. Bounds are passed on as bounds.

Consider 18 compounds from patent US12281122B1, “PI3K inhibitors” (Cogent Biosciences, Inc., priority 2023, dated 2025).

In the case of `Cc1cc([C@@H](C)Nc2ccc(Cl)nc2C(=O)NS(C)(=O)=O)c2nc(N3CCC(c4ccn(C)c(=O)c4)CC3)n(C)c(=O)c2c1` [Compound 319, (R)-6-chloro-3-((1-(3,6-dimethyl-2-(4-(1-methyl-2-oxo-1,2-dihydropyridin-4-yl)piperidin-1-yl)-4-oxo-3,4-dihydroquinazolin-8-yl)ethyl)amino)-N-(methylsulfonyl) picolinamide], the IC50 in experiment [1] (setting [3]) was less than 250 nM; in experiment [2] (setting [4]) it was 1000 to 5000 nM.

As for `Cc1cc([C@@H](C)Nc2ccc(Cl)nc2C(=O)NS(C)(=O)=O)c2nc(N3C[C@@H]4[C@H](C3)[C@H]4n3cc(C)cn3)n(C)c(=O)c2c1` [Compound 491, 6-chloro-3-(((R)-1-(3,6-dimethyl-2-((1R,5S,6S)-6-(4-methyl-1H-pyrazol-1-yl)-3-azabicyclo[3.1.0]hexan-3-yl)-4-oxo-3,4-dihydroquinazolin-8-yl)ethyl)amino)-N-(methylsulfonyl) picolinamide], the IC50 in experiment [1] (setting [5]) is 250 to 500 nM; in experiment [2] (setting [6]), 1000 to 5000 nM.

For `Cc1cc([C@@H](C)Nc2ccc(Cl)nc2C(=O)NS(C)(=O)=O)c2nc(N3CCC(c4cncc(C)n4)CC3)n(C)c(=O)c2c1` [Compound 399, (R)-6-chloro-3-((1-(3,6-dimethyl-2-(4-(6-methylpyrazin-2-yl)piperidin-1-yl)-4-oxo-3,4-dihydroquinazolin-8-yl)ethyl)amino)-N-(methylsulfonyl) picolinamide], the IC50 in experiment [1] (setting [3]) was less than 250 nM; in experiment [2] (setting [4]), no less than 5000 nM.

Turning to `Cc1cc([C@@H](C)Nc2ccc(Cl)nc2C(=O)NS(C)(=O)=O)c2nc(-c3ccc(OC[C@@H]4CCN(C)CC4(F)F)nc3)n(C)c(=O)c2c1` [Compound 390, 6-chloro-3-(((R)-1-(2-(6-(((S)-3,3-difluoro-1-methylpiperidin-4-yl)methoxy)pyridin-3-yl)-3,6-dimethyl-4-oxo-3,4-dihydroquinazolin-8-yl)ethyl)amino)-N-(methylsulfonyl) picolinamide], the IC50 in experiment [1] (setting [3]) was less than 250 nM; in experiment [2] (setting [4]), no less than 5000 nM.

Consider `Cc1cc([C@@H](C)Nc2ccc(Cl)nc2C(=O)NS(C)(=O)=O)c2nc(N3C[C@@H]4[C@H](C3)[C@H]4c3c(F)cnn3C)n(C)c(=O)c2c1` [Compound 424, 6-chloro-3-(((R)-1-(2-((1R,5S,6R)-6-(4-fluoro-1-methyl-1H-pyrazol-5-yl)-3-azabicyclo[3.1.0]hexan-3-yl)-3,6-dimethyl-4-oxo-3,4-dihydroquinazolin-8-yl)ethyl)amino)-N-(methylsulfonyl) picolinamide], for which the IC50 was 250 to 500 nM in experiment [1] (setting [3]) and no less than 5000 nM in experiment [2] (setting [4]).

As to `Cc1cc([C@@H](C)Nc2ccc(Cl)nc2C(=O)NS(C)(=O)=O)c2nc(N3C[C@@H]4CC(c5cnc(C)nc5)C[C@H]4C3)n(C)c(=O)c2c1` (mixture of isomers) [Compound 762, 6-chloro-3-(((R)-1-(3,6-dimethyl-2-((3aRS,6aRS)-5-(2-methylpyrimidin-5-yl)hexahydrocyclopenta [c]pyrrol-2(1H)-yl)-4-oxo-3,4-dihydroquinazolin-8-yl)ethyl)amino)-N-(methylsulfonyl) picolinamide], the IC50 in experiment [1] (setting [5]) was 250 to 500 nM; in experiment [2] (setting [6]), no less than 5000 nM.

For `Cc1cc([C@@H](C)Nc2ccc(Cl)nc2C(=O)NS(C)(=O)=O)c2nc(N3CCC(c4nn(C)cc4C#N)CC3)n(C)c(=O)c2c1` [Compound 697, (R)-6-chloro-3-((1-(2-(4-(4-cyano-1-methyl-1H-pyrazol-3-yl)piperidin-1-yl)-3,6-dimethyl-4-oxo-3,4-dihydroquinazolin-8-yl)ethyl)amino)-N-(methylsulfonyl) picolinamide], the IC50 in experiment [1] (setting [5]) fell in the range of 250 to 500 nM; in experiment [2] (setting [6]), 1000 to 5000 nM.

Regarding `Cc1cc([C@@H](C)Nc2ccc(Cl)nc2C(=O)NS(C)(=O)=O)c2nc(N3C[C@@H]4[C@H](C3)[C@H]4c3cc4n(n3)CCC4)n(C)c(=O)c2c1` [Compound 477, 6-chloro-3-(((R)-1-(2-((1R,5S,6R)-6-(5,6-dihydro-4H-pyrrolo[1,2-b]pyrazol-2-yl)-3-azabicyclo[3.1.0]hexan-3-yl)-3,6-dimethyl-4-oxo-3,4-dihydroquinazolin-8-yl)ethyl)amino)-N-(methylsulfonyl) picolinamide], the half-maximal inhibitory concentration (IC50) is less than 250 nM in experiment [1] (setting [5]) and 1000 to 5000 nM in experiment [2] (setting [6]).

With `Cc1cc([C@@H](C)Nc2ccc(Cl)nc2C(=O)NS(C)(=O)=O)c2nc(N3CCN(c4cc(F)cnc4C)CC3)n(C)c(=O)c2c1` [Compound 730, (R)-6-chloro-3-((1-(2-(4-(5-fluoro-2-methylpyridin-3-yl)piperazin-1-yl)-3,6-dimethyl-4-oxo-3,4-dihydroquinazolin-8-yl)ethyl)amino)-N-(methylsulfonyl) picolinamide], the results for the IC50 in experiment [1] (setting [5]) and in experiment [2] (setting [6]) were 250 to 500 nM and 1000 to 5000 nM, respectively.

In the case of `Cc1cc([C@@H](C)Nc2ccc(Cl)nc2C(=O)NS(C)(=O)=O)c2nc(N3C[C@H]4C[C@@H]3C[C@H]4c3ccn(C)n3)n(C)c(=O)c2c1` (relative stereo) [Compound 355, 6-chloro-3-(((R)-1-(3,6-dimethyl-2-((1R*,4S*,5R*)-5-(1-methyl-1H-pyrazol-3-yl)-2-azabicyclo[2.2.1]heptan-2-yl)-4-oxo-3,4-dihydroquinazolin-8-yl)ethyl)amino)-N-(methylsulfonyl) picolinamide], the results for the IC50 in experiment [1] (setting [3]) and in experiment [2] (setting [4]) were less than 250 nM and 1000 to 5000 nM, respectively.

On to `Cc1cc([C@@H](C)Nc2ccc(Cl)nc2C(=O)NS(C)(=O)=O)c2nc(N3C[C@H]4C[C@@H]3CN4c3cnc(C)nc3)n(C)c(=O)c2c1` [Compound 592, 6-chloro-3-(((R)-1-(3,6-dimethyl-2-((1R,4R)-5-(2-methylpyrimidin-5-yl)-2,5-diazabicyclo [2.2.1]heptan-2-yl)-4-oxo-3,4-dihydroquinazolin-8-yl)ethyl)amino)-N-(methylsulfonyl) picolinamide], for which the IC50 in experiment [1] (setting [5]) is 500 to 1000 nM; in experiment [2] (setting [6]), no less than 5000 nM.

Consider `Cc1cc([C@@H](C)Nc2ccc(Cl)nc2C(=O)NS(=O)(=O)NC2CC2)c2nc(N3Cc4ccc(F)cc4C3)n(C)c(=O)c2c1` [Compound 152, (R)-6-chloro-N-(N-cyclopropylsulfamoyl)-3-((1-(2-(5-fluoroisoindolin-2-yl)-3,6-dimethyl-4-oxo-3,4-dihydroquinazolin-8-yl)ethyl)amino)picolinamide], for which the IC50 in experiment [1] (setting [3]) is 250 to 500 nM; in experiment [2] (setting [4]), no less than 5000 nM.

On to `Cc1cc([C@@H](C)Nc2ccc(Cl)nc2C(=O)NS(C)(=O)=O)c2nc(N3C[C@H]4C[C@@H]3CN4c3cnc(C)c(F)c3)n(C)c(=O)c2c1` [Compound 664, 6-chloro-3-(((R)-1-(2-((1R,4R)-5-(5-fluoro-6-methylpyridin-3-yl)-2,5-diazabicyclo [2.2.1]heptan-2-yl)-3,6-dimethyl-4-oxo-3,4-dihydroquinazolin-8-yl)ethyl)amino)-N-(methylsulfonyl) picolinamide], for which the IC50 in experiment [1] (setting [5]) is 500 to 1000 nM; in experiment [2] (setting [6]), no less than 5000 nM.

As for `Cc1cc([C@@H](C)Nc2ccc(Cl)nc2C(=O)NS(C)(=O)=O)c2nc(N3CCN(c4ccc(C#N)cn4)[C@@H](C)C3)n(C)c(=O)c2c1` [Compound 196, 6-chloro-3-(((R)-1-(2-((S)-4-(5-cyanopyridin-2-yl)-3-methylpiperazin-1-yl)-3,6-dimethyl-4-oxo-3,4-dihydroquinazolin-8-yl)ethyl)amino)-N-(methylsulfonyl) picolinamide], the IC50 in experiment [1] (setting [3]) is less than 250 nM; in experiment [2] (setting [4]), 1000 to 5000 nM.

For `COc1ccccc1-n1ncc2c1CN(c1nc3c([C@@H](C)Nc4ccc(Cl)nc4C(=O)NS(C)(=O)=O)cc(C)cc3c(=O)n1C)C2` [Compound 326, (R)-6-chloro-3-((1-(2-(1-(2-methoxyphenyl)-4,6-dihydropyrrolo[3,4-c]pyrazol-5(1H)-yl)-3,6-dimethyl-4-oxo-3,4-dihydroquinazolin-8-yl)ethyl)amino)-N-(methylsulfonyl) picolinamide], the IC50 in experiment [1] (setting [3]) was less than 250 nM; in experiment [2] (setting [4]), 1000 to 5000 nM.

Turning to `Cc1cc([C@@H](C)Nc2ccc(Cl)nc2C(=O)NS(C)(=O)=O)c2nc(N3Cc4cnn(-c5cccnc5C)c4C3)n(C)c(=O)c2c1` [Compound 252, (R)-6-chloro-3-((1-(3,6-dimethyl-2-(1-(2-methylpyridin-3-yl)-4,6-dihydropyrrolo[3,4-c]pyrazol-5(1H)-yl)-4-oxo-3,4-dihydroquinazolin-8-yl)ethyl)amino)-N-(methylsulfonyl) picolinamide], the IC50 in experiment [1] (setting [3]) is less than 250 nM; in experiment [2] (setting [4]), 1000 to 5000 nM.

Consider `Cc1cc([C@@H](C)Nc2ccc(Cl)nc2C(=O)NS(C)(=O)=O)c2nc(N3CCC(c4ccn(C(F)F)n4)CC3)n(C)c(=O)c2c1` [Compound 413, (R)-6-chloro-3-((1-(2-(4-(1-(difluoromethyl)-1H-pyrazol-3-yl)piperidin-1-yl)-3,6-dimethyl-4-oxo-3,4-dihydroquinazolin-8-yl)ethyl)amino)-N-(methylsulfonyl) picolinamide], for which the results for the IC50 in experiment [1] (setting [3]) and in experiment [2] (setting [4]) were less than 250 nM and 1000 to 5000 nM, respectively.

Consider `Cc1cc([C@@H](C)Nc2ccc(Cl)nc2C(=O)NS(C)(=O)=O)c2nc([C@H]3[C@@H]4CNC[C@@H]43)n(C)c(=O)c2c1` [Compound 848, 3-(((R)-1-(2-((1R,5S,6r)-3-azabicyclo[3.1.0]hexan-6-yl)-3,6-dimethyl-4-oxo-3,4-dihydroquinazolin-8-yl)ethyl)amino)-6-chloro-N-(methylsulfonyl) picolinamide], for which the IC50 in experiment [1] (T47D (PI3Kα-H1047R) cell line, phospho-AKT(S473) HTRF) was 1000 to 5000 nM; in experiment [2] (SKBR3 (PI3Kα-Wild Type) cell line, phospho-AKT(S473) HTRF) it was no less than 5000 nM.

Broadly, the IC50 is the concentration at which inhibition is half-maximal. A lower IC50 goes with higher potency.
